Test results: patent US20090181901A1, “COMPOSITIONS AND METHODS TO INCREASE BIOAVAILABILITY OF CAROTENOIDS” (priority 2007, published 2009)

Tests used:
[1] = test system: CaCo-2 cells; assay: Cellular uptake of Lutein (esterified form) in CaCo-2 cells; format: in vitro ADME; settings: 20 mg Luteindipalmitinic-ester/100 mL medium, alone or plus 160 mg bilberry extract or 180 mg Bil/Cys; 37° C.; lutein quantified after hydrolysis
Protocol: (§1) CaCo-2 cells were cultured in Dulbeccos's Modified Eagle Medium containing 20% fetal bovine serum, 1.2% nonessential amino acids, 0.83 mM L-glutamine, 1.2% penicillin-streptomycin and 0.1% mercaptoethanole in an atmosphere of 5% CO2 and 95% air at 37° C.
(§2) Cells were grown in 75 cm^2 culture-flasks (T75) and sub-cultured after one week (every other day washed with PBS buffer, removed with trypsin and transferred to a new culture flask).
For experiments, cells were seeded in 6 well plates at a density of 3×10^5 cells per well and grown in an atmosphere of 5% CO2 and 95% air at 37° C. 7 to 8 days until confluence was reached. The cells were washed with PBS buffer, incubated with 4 ml medium containing the suspended samples for 30, 60 or 120 minutes. […]
(§3) Quantification was performed by external standardization after linear regression analysis.
CaCo-2 cells were incubated with 20 mg Luteindipalmitinic-ester/100 mL medium, 20 mg (0.019 mmol) Luteindipalmitinic-ester plus 160 mg bilberry extract (25% anthocyanins, 0.08 mmol)/100 mL medium or 20 mg Luteindipalmitinic-ester plus 180 mg Bil/Cys [equivalent to 162 mg bilberry (25% anthocyanins, 0.081 mmol) and 18 mg (0.149 mmol) L-cysteine] at 37° C. for 30, 60 and 120 minutes. […] After hydrolysis of the luteinester, lutein was quantified in the cells.

[2] = In vitro stability of lutein in pH 7.0 buffer (UV-VIS degradation ratio); format: physicochemical
Protocol: 10.0 mg ([…]) lutein in 10 ml was added to a volumetric flask and diluted to volume with THF. In a small beaker, 0.50 g PEO (20) sorbitan monooleate was dissolved in 15.0 g de-ionized water. 1.0 ml lutein THF solution was added into the water solution and sonicated until a clear yellow micro-emulsion was formed.
10.0 mg (0.006 mmol) bilberry extract was added to a second 10 ml volumetric flask and filled to volume with de-ionized water. 1.0 ml bilberry extract solution was transferred to a small beaker and sonicated until a homogeneous solution was obtained. 1.0 ml of the bilberry solution was placed into a 10 ml colorless volumetric flask and filled to volume with sodium phosphate buffer (pH=7.0). The buffered solution was placed into a 37° C. water bath for 5 hours. UV-VIS spectrometery was used to analyze the degradation ratio. All samples were made alike. Similarly, L-cysteine was used in place of bilberry extract.

[3] = Stability of Lutein and Zeaxanthine in incubation medium (control experiment); format: physicochemical; settings: for Stability in incubation medium: 37° C.; for Breakdown in incubation medium (in words): test assay conditions, 120 minutes at 37° C.
Text: In a control experiment, the stability of the analytes under the experimental conditions was investigated.

[4] = test system: CaCo-2 cells; assay: Cellular uptake of Lutein and Zeaxanthine in CaCo-2 cells with or without black currant extract; format: in vitro ADME; settings: for Level observed in cells: 9 mg Lutein+1 mg Zeaxanthine/100 mL; for Absorption in presence of black currant extract (in words): compared with absence of black currant extract; for Factor by which absorption is increased in presence of Black Currant extract: with vs without Black Currant extract
Protocol: CaCo-2 cells were cultured in Dulbeccos's Modified Eagle Medium (DMEM) containing 20% fetal bovine serum, 1.2% nonessential amino acids, 0.83 mM L-glutamine, 1.2% penicillin-streptomycin and 0.1% mercaptoethanole in an atmosphere of 5% CO2 and 95% air at 37° C.
as §2
For experiments, cells were seeded in 6 well plates at a density of 3×10^5 cells per well and grown in an atmosphere of 5% CO2 and 95% air at 37° C., 7 to 8 days until confluence was reached. The cells were washed with PBS buffer, incubated with 4 ml medium containing the suspended samples for 30, 60 or 120 minutes.
(§4) After the corresponding incubation time, the cells were washed with PBS buffer and removed using 1 ml of TBME. Cells were sonicated 3 times for 30 seconds, centrifuged for 10 min and the pellets were discarded. The supernatant was used as sample for HPLC (lutein).
Cmax was taken directly from the concentration/time data obtained from the analysis.
The concentration/time data obtained from the analysis were further submitted to non-compartmental calculation of the AUC0-120min using the trapezoidal rule.
as §3
CaCo-2 cells were incubated with (9 mg Lutein+1 mg Zeaxanthine, see Table 6)/100 mL with or without 160 mg black currant extract/100 mL medium. Incubations were performed at 37° C. for 30, 60 and 120 minutes. At each time point, 3 wells were processed for analysis by collection of the incubation medium and extraction of Lutein/Zeaxanthine absorbed into the cells.

[5] = Cellular uptake of Lutein (free form) in CaCo-2 cells; format: in vitro ADME; settings: human, 10 mg Lutein/100 mL medium, alone or plus 160 mg bilberry extract or 180 mg Bil/Cys
Protocol: as §1, §2
For experiments, cells were seeded in 6 well plates at a density of 3×10^5 cells per well and grown in an atmosphere of 5% CO2 and 95% air at 37° C. 7 to 8 days until confluence was reached. The cells were washed with PBS buffer, incubated with 4 ml medium containing the suspended samples for 30, 60 or 120 minutes.
as §4, with “(lutein). For luteindipalmitinic-ester the supernatant was hydrolyzed by reflux heating in ethanol/HCl.” for “(lutein).”
Cmax was taken directly from the concentration/time data obtained from the analysis. […]
Quantification was performed by external standardization after linear regression analysis. […]

[6] = Time 120 min, slight increase ascribed to evaporation of the medium
[7] = Time 0 min, with BC (160 mg black currant extract/100 mL)
[8] = Time 30 min, with BC (160 mg black currant extract/100 mL)
[9] = Time 60 min, with BC (160 mg black currant extract/100 mL)
[10] = Time 120 min, with BC (160 mg black currant extract/100 mL)
[11] = with BC (160 mg black currant extract/100 mL)

CCCCCCCCCCCCCCCC(=O)O[C@@H]1CC(C)=C(/C=C/C(C)=C/C=C/C(C)=C/C=C/C=C(C)/C=C/C=C(C)/C=C/[C@H]2C(C)=C[C@H](OC(=O)CCCCCCCCCCCCCCC)CC2(C)C)C(C)(C)C1 [Luteinester, Luteindipalmitinic-ester]
Cmax of cellular uptake of Luteinester [1]: 530 ng/mL | Total uptake of Luteinester (AUC0-120min, trapezoidal rule) [1]: 42.2 µg·min/mL

N[C@@H](CS)C(=O)O [L-Cys, L-Cysteine]
Residual Ratio of lutein ([2]; 0.2 mg (0.17 μmol/ml) L-Cys, pH 7.0, 37° C., 5 hours, blank 86.82): 90.22% | Residual Ratio of lutein ([2]; 1.0 mg (0.8 μmol/ml) L-Cys, 4.3 μg free lutein, phosphate buffer pH 7.0, 37° C., 5 hours, blank (lutein alone) 86.82): 94.52% | Residual Ratio of lutein ([2]; 2.0 mg (1.7 μmol/ml) L-Cys, 4.3 μg free lutein, pH 7.0, 37° C., 5 hours, blank 86.82): 94.47% | Residual Ratio of lutein ([2]; 5.0 mg (4.1 μmol/ml) L-Cys, 4.3 μg free lutein, pH 7.0, 37° C., 5 hours, blank 86.82): 95.41% | Residual Ratio of lutein ([2]; 10.0 mg (8.2 μmol/ml) L-Cys, 4.3 μg free lutein, pH 7.0, 37° C., 5 hours, blank 86.82): 94.74% | Protection of lutein against degradation (in words) ([2]; neutral environmental conditions): remarkable protection | Concentration at which an enhanced protective effect on lutein was noted ([2]; pH 7.0, 37° C., 5 hours): about 4.1 μmol/ml

CC1=C(/C=C/C(C)=C/C=C/C(C)=C/C=C/C=C(C)/C=C/C=C(C)/C=C/C2=C(C)C[C@@H](O)CC2(C)C)C(C)(C)C[C@H](O)C1 [Zeaxanthine, (3R,3′R)-beta, beta carotene-3,3′-diol]
Stability in incubation medium ([3]; Time 0 min): 100% | Stability in incubation medium [3, 6]: 106% | Breakdown in incubation medium (in words) [3]: no breakdown | Absorption of zeaxanthine compared to lutein (in words) [4]: better absorption as compared to lutein | Relative cellular uptake (sum of lutein and Zeaxanthine set to 100%) ([4]; 30 min, With Black Currant): 12.7% | Relative cellular uptake (sum of lutein and Zeaxanthine set to 100%) ([4]; 30 min, Without Black Currant): 14.4% | Relative cellular uptake (sum of lutein and Zeaxanthine set to 100%) ([4]; 60 min, With Black Currant): 14.2% | Relative cellular uptake (sum of lutein and Zeaxanthine set to 100%) ([4]; 60 min, Without Black Currant): 14.5% | Relative cellular uptake (sum of lutein and Zeaxanthine set to 100%) ([4]; 120 min, With Black Currant): 13.4% | Relative cellular uptake (sum of lutein and Zeaxanthine set to 100%) ([4]; 120 min, Without Black Currant): 12.7% | Level observed in cells [4, 7]: 0 ng/mL | Level observed in cells ([4]; Time 0 min, without BC): 0 ng/mL | Level observed in cells [4, 8]: 309 ng/mL | Level observed in cells ([4]; Time 30 min, without BC): 131 ng/mL | Level observed in cells [4, 9]: 363 ng/mL | Level observed in cells ([4]; Time 60 min, without BC): 240 ng/mL | Level observed in cells [4, 10]: 314 ng/mL | Level observed in cells ([4]; Time 120 min, without BC): 181 ng/mL | Absorption in presence of black currant extract (in words) [4]: better absorption | AUC0-120 of cellular uptake [4, 11]: 35.01 µg·min/mL | Cmax of cellular uptake [4, 11]: 363 ng/mL | Factor by which absorption is increased in presence of Black Currant extract [4]: ~2 | AUC0-120 of cellular uptake ([4]; without BC): 20.17 µg·min/mL | Cmax of cellular uptake ([4]; without BC): 240 ng/mL

CC1=C[C@H](O)CC(C)(C)[C@H]1/C=C/C(C)=C/C=C/C(C)=C/C=C/C=C(C)/C=C/C=C(C)/C=C/C1=C(C)C[C@@H](O)CC1(C)C [Lutein, (3R,3′R,6′R)-beta, epsilon-carotene-3,3′-diol]
AUC(0-t) at 10 mg/100 mL ([5]; 37° C., 0-120 min, read-out: Total uptake of Lutein (AUC0-120min, trapezoidal rule) (converted)): 2250 ng·h/mL | Cmax at 10 mg/100 mL ([5]; 37° C., 30, 60, 120 minutes): 1530 ng/mL | Stability in incubation medium ([3]; Time 0 min): 100% | Stability in incubation medium [3, 6]: 108% | Breakdown in incubation medium (in words) [3]: no breakdown | Relative cellular uptake (sum of lutein and Zeaxanthine set to 100%) ([4]; 30 min, With Black Currant): 87.3% | Relative cellular uptake (sum of lutein and Zeaxanthine set to 100%) ([4]; 30 min, Without Black Currant): 85.6% | Relative cellular uptake (sum of lutein and Zeaxanthine set to 100%) ([4]; 60 min, With Black Currant): 85.8% | Relative cellular uptake (sum of lutein and Zeaxanthine set to 100%) ([4]; 60 min, Without Black Currant): 85.5% | Relative cellular uptake (sum of lutein and Zeaxanthine set to 100%) ([4]; 120 min, With Black Currant): 86.6% | Relative cellular uptake (sum of lutein and Zeaxanthine set to 100%) ([4]; 120 min, Without Black Currant): 87.3% | Level observed in cells [4, 7]: 0 ng/mL | Level observed in cells ([4]; Time 0 min, without BC): 0 ng/mL | Level observed in cells [4, 8]: 2120 ng/mL | Level observed in cells ([4]; Time 30 min, without BC): 776 ng/mL | Level observed in cells [4, 9]: 2346 ng/mL | Level observed in cells ([4]; Time 60 min, without BC): 1420 ng/mL | Level observed in cells [4, 10]: 1897 ng/mL | Level observed in cells ([4]; Time 120 min, without BC): 1170 ng/mL | Absorption in presence of black currant extract (in words) [4]: better absorption | AUC0-120 of cellular uptake [4, 11]: 226.1 µg·min/mL | Cmax of cellular uptake [4, 11]: 2346 ng/mL | Factor by which absorption is increased in presence of Black Currant extract [4]: ~2 | AUC0-120 of cellular uptake ([4]; without BC): 122.3 µg·min/mL | Cmax of cellular uptake ([4]; without BC): 1420 ng/mL
